Earlier results as cited in US11389471B2, “Systems and methods to improve organ or tissue function and organ or tissue transplant longevity” (Proterris Inc., priority 2014, dated 2022).

Conditions: CO alveolar concentration of 25 ppm; CFK equation

[C-]#[O+] [CO, carbon monoxide]
time to reach an equilibration point: about 20 hours
